# Assay results taken from ChEMBL document CHEMBL1159233, “Antitumor agents, 154. Cytotoxic and antimitotic flavonols from Polanisia dodecandra” (J Nat Prod, 1995).
# Activity calls are given as the source filed them. The rule behind the calls is not given here.
# Tests used:
# KB = test: Cytotoxicity against human KB cells; type: functional; conditions: read-out: ED50 (the source's name)
# A549 = test: Cytotoxicity against human A549 cells; type: functional
# HCT-8 = test: Cytotoxicity against human HCT8 cells; type: functional
# P388 = test: Cytotoxicity against mouse P388 cells; type: functional; conditions: read-out: ED50 (the source's name)
# [1] = Cytotoxicity against human PRMI7951 cells; type: functional; conditions: read-out: ED50 (the source's name)
# TE-671 = test: Cytotoxicity against human TE671 cells; type: functional; conditions: read-out: ED50 (the source's name)
# HL-60(TB) = test: Growth inhibition of human HL-60(TB) cells; type: functional
# SR = test: Growth inhibition of human SR cells; type: functional
# HOP-62 = test: Growth inhibition of human HOP62 cells; type: functional
# NCI-H226 = test: Growth inhibition of human NCI-H226 cells; type: functional
# NCI-H460 = test: Growth inhibition of human NCI-H460 cells; type: functional
# NCI-H522 = test: Growth inhibition of human NCI-H522 cells; type: functional
# [2] = Growth inhibition of human DMS144 cells; type: functional
# HCT-116 = test: Growth inhibition of human HCT116 cells; type: functional
# SF-268 = test: Growth inhibition of human SF268 cells; type: functional
# SF-539 = test: Growth inhibition of human SF539 cells; type: functional
# SNB-75 = test: Growth inhibition of human SNB75 cells; type: functional
# U-251 = test: Growth inhibition of human U251 cells; type: functional
# SK-MEL-5 = test: Growth inhibition of human SK-MEL-5 cells; type: functional
# OVCAR-3 = test: Growth inhibition of human OVCAR-3 cells; type: functional
# SK-OV-3 = test: Growth inhibition of human SKOV3 cells; type: functional
# UO-31 = test: Growth inhibition of human UO31 cells; type: functional
# [3] = Inhibition of tubulin polymerization
# [4] = Displacement of [3H]colchicine from tubulin at 5 uM
# [5] = Displacement of [3H]colchicine from tubulin at 50 uM
# [6] = read-out: ED50 (the source's name)
smiles,measurement,setting,value
COc1ccc(-c2oc3c(OC)c(OC)c(OC)c(O)c3c(=O)c2OC)cc1O,EC50,KB,0.045 µg/mL
same,EC50,A549; [6],0.6 µg/mL
same,EC50,HCT-8; [6],4.4 µg/mL
same,EC50,P388,0.055 µg/mL
same,EC50,[1],0.55 µg/mL
same,EC50,TE-671,0.069 µg/mL
same,GI50,HL-60(TB),< 10 nM
same,TGI,HL-60(TB); read-out: pTGI,< 10 nM
same,GI50,SR,< 10 nM
same,TGI,SR; read-out: pTGI (converted),112 nM
same,GI50,HOP-62,47.9 nM
same,TGI,HOP-62; read-out: pTGI (converted),4790 nM
same,GI50,NCI-H226,61.7 nM
same,TGI,NCI-H226; read-out: pTGI (converted),363 nM
same,GI50,NCI-H460,< 10 nM
same,TGI,NCI-H460; read-out: pTGI (converted),138 nM
same,GI50,NCI-H522,< 10 nM
same,TGI,NCI-H522; read-out: pTGI,< 10 nM
same,GI50,[2],< 10 nM
same,TGI,[2]; read-out: pTGI,< 10 nM
same,GI50,HCT-116,< 10 nM
same,TGI,HCT-116; read-out: pTGI (converted),123 nM
same,GI50,SF-268,< 10 nM
same,TGI,SF-268; read-out: pTGI (converted),2820 nM
same,GI50,SF-539,< 10 nM
same,TGI,SF-539; read-out: pTGI,< 10 nM
same,GI50,SNB-75,< 10 nM
same,TGI,SNB-75; read-out: pTGI,< 10 nM
same,GI50,U-251,< 10 nM
same,TGI,U-251; read-out: pTGI (converted),229 nM
same,GI50,SK-MEL-5,< 10 nM
same,TGI,SK-MEL-5; read-out: pTGI (converted),1000 nM
same,GI50,OVCAR-3,< 10 nM
same,TGI,OVCAR-3; read-out: pTGI,< 10 nM
same,GI50,SK-OV-3,< 10 nM
same,TGI,SK-OV-3; read-out: pTGI (converted),417 nM
same,GI50,UO-31,< 10 nM
same,TGI,UO-31; read-out: pTGI (converted),5750 nM
same,IC50,[3],830 nM
same,Activity,[4],59%
same,Activity,[5],89%
COc1cc([C@@H]2c3cc4c(cc3[C@H](O)[C@H]3COC(=O)[C@H]23)OCO4)cc(OC)c1OC,Activity,[4],82%
COc1cc(-c2oc3c(OC)c(OC)c(OC)c(O)c3c(=O)c2OC)ccc1O,EC50,KB,8.38 µg/mL
same,Activity,A549,inactive
same,Activity,HCT-8,inactive
same,EC50,P388,6.52 µg/mL
same,EC50,[1],5.93 µg/mL
same,EC50,TE-671,0.98 µg/mL
COc1ccc(-c2oc3cc(O)c(OC)c(O)c3c(=O)c2OC)cc1O [CENTAUREIDIN],IC50,[3],2000 nM
same,Activity,[4],35%
same,Activity,[5],76%
